In brackets after ≈: the same amount, converted by molar mass.
What was measured:
Assay type in all cases: cell-based
Aspergillus flavus = assay: MIC, YAG medium, Aspergillus flavus; details: YAG medium; for MIC: Aspergillus flavus, read-out: MIC A Flavus 01
Experimental: (§1) Measurement of Minimum Inhibitory Concentrations (MICs)
(§2) Between 1 and 5 mgs of compound were accurately weighed out into a sterile Eppendorf tube. The compound was dissolved in DMSO to give a solution containing 5 mg/ml. Tubes were stored at −20° C. until required.
(§3) On the day of testing thawed solutions were vortex mixed to ensure homogeneity. 30 μl of solution was removed and added to 570 μl of sterile water in a separate sterile Eppendorf. The thoroughly mixed solution was used to prepare a series of doubling dilutions in water, in a deep well plate. Eleven replicate plates were prepared using a Minitrak by aspirating 20 μl from each well into eleven clear polystyrene 96 well plates.
(§4) Spores of Aspergillus spp (Aspergillus fumigatus, Aspergillus terreus, Aspergillus niger and Aspergillus flavus) were harvested from cultures grown on Sabarauds agar for 5 days, and resuspended in PBS/Tween 80 to approx 1×10^7 cfu/ml Other filamentous fungi (Fusarium solani, Scedosporium spp., Trichophyton spp., Absidia corymbifera), were grown on Sabarauds agar for 2-10 days and spores/hyphae resuspended in PBS/Tween to give approx 1×10^7 cfU/ml. Candida species (Candida albicans, Candida glabrata, Candida krusei, Candida parapsilosis and Candida tropicalis) were grown on Sabarauds agar, cells were harvested from the agar using a sterile loop and resuspended in PBS/Tween 80 to approx 1×10^6 cfu/ml. Each organism suspension was diluted in RPMI medium, containing 2% glucose and 0.135M MOPS buffer (pH7.0) to 2×10^4 cfu/ml for Aspergillus spp and other filamentous fungi and 2×10^3 cfu/ml for yeast. 80 μl of an organism suspension was added to each well of the plate containing drug dilutions.
(§5) This produced MIC plates with a drug range 50-0.05 mg/L and organism inocula of 1-2×10^4 cfu/ml for Aspergillus spp and other filamentous fungi and 1-2×10^3 cfu/ml for yeasts. All plates were incubated for 24-48 hrs at 35° C. Growth was assessed by monitoring the optical density at 485 nm for each well. The MIC of a compound is the lowest drug concentration that inhibits growth of an organism by >80% compared with a drug free control. MICs are recorded as mg/L. Other growth media can be used for susceptibility testing, and the activity of the described compounds can also be assessed in a medium comprising, 1% glucose, 1% ammonium chloride and 0.5% yeast extract (YAG medium). To perform MIC tests in this medium, dilutions of compounds are prepared in microtitre plates as described above. Fungal strains to be tested are grown and harvested in an identical manner to that described above, each organism suspension is then diluted in YAG medium to 2×10^4 cfu/ml for Aspergillus spp and other filamentous fungi and 2×10^3 cfu/ml for yeast. 80 μl of an organism suspension was added to each well of the plate containing drug dilutions. This produced MIC plates with a drug range 50-0.05 mg/L and organism inocula of 1-2×10^4 cfu/ml for Aspergillus spp and other filamentous fungi and 1-2×10^3 cfu/ml for yeasts. All plates were incubated for 24 hrs at 35° C. Growth was assessed by monitoring the optical density at 485 nm for each well. The MIC of a compound is the lowest drug concentration that inhibits growth of an organism by >70% compared with a drug free control. MICs are recorded as mg/L. In cases where the MIC of an organism is […]0.05 mg/L the MIC is repeated using a concentration range of 0.5-0.0005 mg/L. MIC tests in YAG medium have more clear-cut endpoints and have slightly lower MICS than those performed in RPMI medium.
(§6) The following organisms were tested: Aspergillus fumigatus AF293 and Aspergillus fumigatus AF210, Aspergillus niger, Aspergillus terreus, Aspergillus favus, Candida albicans, Candida krusei, Candida tropicalis, Candida glabrata, Candida parapsilosis, Trichophyton rubrum, Trichophyton mentagrophytes, Scedosporium prolificans, Scedosporium apiospermum, Absidia corymbifera, Fusarium solani.

[1] = tested on: Aspergillus fumigatus AF293; assay: MIC, YAG medium, Aspergillus fumigatus AF293; details: YAG medium; for MIC: Aspergillus fumigatus, AF293, read-out: MIC A Fum. 293
Experimental: as §1, §2, §3, §4, §5, §6

Aspergillus niger = assay: MIC, YAG medium, Aspergillus niger; details: YAG medium; for MIC: Aspergillus niger, read-out: MIC A Niger 1
Experimental: as §1, §2, §3, §4, §5, §6

Aspergillus terreus = assay: MIC, YAG medium, Aspergillus terreus; details: YAG medium; for MIC: Aspergillus terreus, read-out: MIC A Terreus 4
Experimental: as §1, §2, §3, §4, §5, §6

[2] = tested on: Aspergillus fumigatus AF210; assay: MIC, YAG medium, Aspergillus fumigatus AF210; details: YAG medium; for MIC: Aspergillus fumigatus, AF210, read-out: MIC A Fum. 210
Experimental: as §1, §2, §3, §4, §5, §6

| SMILES | MIC A Flavus 01 (Aspergillus flavus) | MIC A Fum. 293 [1] | MIC A Niger 1 (Aspergillus niger) | MIC A Terreus 4 (Aspergillus terreus) | MIC A Fum. 210 [2] | MIC (Aspergillus flavus) | MIC [1] | MIC (Aspergillus niger) | MIC (Aspergillus terreus) | MIC [2] |
| --- | --- | --- | --- | --- | --- | --- | --- | --- | --- | --- |
| CON=C(C(=O)Nc1ccc(OC)cc1)c1c(-c2ccccc2)cc2ccccn12 (mixture of isomers) [Example 298, 2-[(E/Z)-Methoxyimino]-N-(4-methoxy-phenyl)-2-(2-phenyl-indolizin-3-yl)-acetamide] | 0.1 µg/mL | 0.8 µg/mL | 0.2 µg/mL | 0.2 µg/mL | 0.8 µg/mL | – | – | – | – | – |
| COC(=O)c1ccccc1NC(=O)C(=O)c1c(-c2ccccc2)cc2ccccn12 [Example 142, 2-[2-Oxo-2-(2-phenyl-indolizin-3-yl)-acetylamino]-benzoic acid methyl ester] | – | – | – | – | – | > 50 µg/mL | > 50 µg/mL | 0.8 µg/mL (≈ 2.01 µM) | > 50 µg/mL | > 50 µg/mL |
| COc1ccc(NC(=O)C(=O)c2c(-c3cccnc3)cc3ccccn23)cc1 [Example 147, N-(4-Methoxy-phenyl)-2-oxo-2-(2-pyridin-3-yl-indolizin-3-yl)-acetamide] | – | – | – | – | – | 0.1 µg/mL (≈ 0.269 µM) | 12.5 µg/mL (≈ 33.7 µM) | 0.1 µg/mL (≈ 0.269 µM) | 3.1 µg/mL (≈ 8.35 µM) | 6.25 µg/mL (≈ 16.8 µM) |
| O=C(Nc1ccccn1)C(=O)c1c(-c2ccccc2)cc2ccccn12 [Example 151, 2-Oxo-2-(2-phenyl-indolizin-3-yl)-N-pyridin-2-yl-acetamide] | – | – | – | – | – | 1.6 µg/mL (≈ 4.69 µM) | 6.25 µg/mL (≈ 18.3 µM) | 0.4 µg/mL (≈ 1.17 µM) | 0.4 µg/mL (≈ 1.17 µM) | 6.25 µg/mL (≈ 18.3 µM) |
| O=C(Nc1cccnc1)C(=O)c1c(-c2ccccc2)cc2ccccn12 [Example 152, 2-Oxo-2-(2-phenyl-indolizin-3-yl)-N-pyridin-3-yl-acetamide] | – | – | – | – | – | 1.6 µg/mL (≈ 4.69 µM) | 12.5 µg/mL (≈ 36.6 µM) | 0.4 µg/mL (≈ 1.17 µM) | 0.8 µg/mL (≈ 2.34 µM) | 25 µg/mL (≈ 73.2 µM) |
| CNC(=O)c1ccc(NC(=O)C(=O)c2c(-c3ccccc3)cc3ccccn23)cc1 [Example 153, N-Methyl-4-[2-oxo-2-(2-phenyl-indolizin-3-yl)-acetylamino]-benzamide] | – | – | – | – | – | 3.1 µg/mL (≈ 7.8 µM) | > 50 µg/mL | 0.8 µg/mL (≈ 2.01 µM) | > 50 µg/mL | 25 µg/mL (≈ 62.9 µM) |
| COc1ccc(NC(=O)C(=O)c2c(-c3ccc(F)cc3)cc3ccccn23)cn1 [Example 157, 2-[2-(4-Fluoro-phenyl)-indolizin-3-yl]-N-(6-methoxy-pyridin-3-yl)-2-oxo-acetamide] | – | – | – | – | – | 0.1 µg/mL (≈ 0.257 µM) | 6.25 µg/mL (≈ 16.1 µM) | 0.1 µg/mL (≈ 0.257 µM) | 0.2 µg/mL (≈ 0.514 µM) | 1.6 µg/mL (≈ 4.11 µM) |
| O=C(Nc1ccncc1)C(=O)c1c(-c2ccccc2)cc2ccccn12 [Example 158, 2-Oxo-2-(2-phenyl-indolizin-3-yl)-N-pyridin-4-yl-acetamide] | – | – | – | – | – | > 50 µg/mL | > 50 µg/mL | 0.4 µg/mL (≈ 1.17 µM) | > 50 µg/mL | > 50 µg/mL |
| O=C(Nc1ccc(C(=O)O)cc1)C(=O)c1c(-c2ccccc2)cc2ccccn12 [Example 159, 4-[2-Oxo-2-(2-phenyl-indolizin-3-yl)-acetylamino]-benzoic acid] | – | – | – | – | – | > 50 µg/mL | > 50 µg/mL | 1.6 µg/mL (≈ 4.16 µM) | 50 µg/mL (≈ 130 µM) | > 50 µg/mL |
| CN(C)C(=O)c1ccc(NC(=O)C(=O)c2c(-c3ccccc3)cc3ccccn23)cc1 [Example 160, N,N-Dimethyl-4-[2-oxo-2-(2-phenyl-indolizin-3-yl)-acetylamino]-benzamide] | – | – | – | – | – | 3.1 µg/mL (≈ 7.53 µM) | 50 µg/mL (≈ 122 µM) | 0.4 µg/mL (≈ 0.972 µM) | 50 µg/mL (≈ 122 µM) | 50 µg/mL (≈ 122 µM) |
| NC(=O)c1ccc(NC(=O)C(=O)c2c(-c3ccccc3)cc3ccccn23)cc1 [Example 161, 4-[2-Oxo-2-(2-phenyl-indolizin-3-yl)-acetylamino]-benzamide] | – | – | – | – | – | > 50 µg/mL | > 50 µg/mL | 6.25 µg/mL (≈ 16.3 µM) | > 50 µg/mL | > 50 µg/mL |
| COc1ccc(NC(=O)C(=O)c2c(-c3ccncc3)cc3ccccn23)cc1 [Example 162, N-(4-Methoxy-phenyl)-2-oxo-2-(2-pyridin-4-yl-indolizin-3-yl)-acetamide] | – | – | – | – | – | > 50 µg/mL | > 50 µg/mL | 3.1 µg/mL (≈ 8.35 µM) | > 50 µg/mL | > 50 µg/mL |
| COc1ccc(NC(=O)C(=O)c2c(-c3ccccn3)cc3ccccn23)cc1 [Example 163, N-(4-Methoxy-phenyl)-2-oxo-2-(2-pyridin-2-yl-indolizin-3-yl)-acetamide] | – | – | – | – | – | > 50 µg/mL | > 50 µg/mL | 1.6 µg/mL (≈ 4.31 µM) | > 50 µg/mL | > 50 µg/mL |
| COc1ccc(NC(=O)C(=O)c2c(-c3ccco3)cc3ccccn23)cc1 [Example 164, 2-(2-Furan-2-yl-indolizin-3-yl)-N-(4-methoxy-phenyl)-2-oxo-acetamide] | – | – | – | – | – | 0.4 µg/mL (≈ 1.11 µM) | > 50 µg/mL | 0.4 µg/mL (≈ 1.11 µM) | > 50 µg/mL | > 50 µg/mL |
| Cc1ccc(NC(=O)C(=O)c2c(-c3ccco3)cc3ccccn23)cc1 [Example 168, 2-(2-Furan-2-yl-indolizin-3-yl)-2-oxo-N-p-tolyl-acetamide] | – | – | – | – | – | 0.4 µg/mL (≈ 1.16 µM) | 1.6 µg/mL (≈ 4.65 µM) | 0.4 µg/mL (≈ 1.16 µM) | 1.6 µg/mL (≈ 4.65 µM) | 3.1 µg/mL (≈ 9 µM) |
| COc1ccc(NC(=O)C(=O)c2c(-c3ccco3)cc3ccccn23)c(OC)c1 [Example 169, N-(2,4-Dimethoxy-phenyl)-2-(2-furan-2-yl-indolizin-3-yl)-2-oxo-acetamide] | – | – | – | – | – | 0.4 µg/mL (≈ 1.02 µM) | 3.1 µg/mL (≈ 7.94 µM) | 0.4 µg/mL (≈ 1.02 µM) | 3.1 µg/mL (≈ 7.94 µM) | 6.25 µg/mL (≈ 16 µM) |
| COc1ccc(NC(=O)C(=O)c2c(-c3ccco3)cc3ccccn23)cn1 [Example 170, 2-(2-Furan-2-yl-indolizin-3-yl)-N-(6-methoxy-pyridin-3-yl)-2-oxo-acetamide] | – | – | – | – | – | 3.1 µg/mL (≈ 8.58 µM) | > 50 µg/mL | 3.1 µg/mL (≈ 8.58 µM) | > 50 µg/mL | > 50 µg/mL |
| Cc1ccc(NC(=O)C(=O)c2c(-c3ccncc3)cc3ccccn23)cc1 [Example 171, 2-Oxo-2-(2-pyridin-4-yl-indolizin-3-yl)-N-p-tolyl-acetamide] | – | – | – | – | – | 0.4 µg/mL (≈ 1.13 µM) | 50 µg/mL (≈ 141 µM) | > 50 µg/mL | 0.8 µg/mL (≈ 2.25 µM) | 1.6 µg/mL (≈ 4.5 µM) |
| COc1ccc(NC(=O)C(=O)c2c(-c3ccncc3)cc3ccccn23)c(OC)c1 [Example 172, N-(2,4-Dimethoxy-phenyl)-2-oxo-2-(2-pyridin-4-yl-indolizin-3-yl)-acetamide] | – | – | – | – | – | 0.4 µg/mL (≈ 0.996 µM) | 25 µg/mL (≈ 62.3 µM) | 3.1 µg/mL (≈ 7.72 µM) | 1.6 µg/mL (≈ 3.99 µM) | 25 µg/mL (≈ 62.3 µM) |
| COc1ccc(NC(=O)C(=O)c2c(-c3cccnc3)cc3ccccn23)c(OC)c1 [Example 174, N-(2,4-Dimethoxy-phenyl)-2-oxo-2-(2-pyridin-3-yl-indolizin-3-yl)-acetamide] | – | – | – | – | – | 0.1 µg/mL (≈ 0.249 µM) | 6.25 µg/mL (≈ 15.6 µM) | 1.6 µg/mL (≈ 3.99 µM) | 0.2 µg/mL (≈ 0.498 µM) | 3.1 µg/mL (≈ 7.72 µM) |
| Cc1ccc(NC(=O)C(=O)c2c(-c3ccccn3)cc3ccccn23)cc1 [Example 175, 2-Oxo-2-(2-pyridin-2-yl-indolizin-3-yl)-N-p-tolyl-acetamide] | – | – | – | – | – | > 50 µg/mL | > 50 µg/mL | > 50 µg/mL | 3.1 µg/mL (≈ 8.72 µM) | 3.1 µg/mL (≈ 8.72 µM) |
| COc1ccc(NC(=O)C(=O)c2c(-c3ccccn3)cc3ccccn23)c(OC)c1 [Example 176, N-(2,4-Dimethoxy-phenyl)-2-oxo-2-(2-pyridin-2-yl-indolizin-3-yl)-acetamide] | – | – | – | – | – | > 50 µg/mL | > 50 µg/mL | 3.1 µg/mL (≈ 7.72 µM) | > 50 µg/mL | > 50 µg/mL |

Reference: patent US8486962B2, “Antifungal agents” (F2G Ltd., priority 2005, dated 2013)
